Paper PMC7180456, “Multitarget Anticancer Agents Based on Histone Deacetylase and Protein Kinase CK2 Inhibitors” (Molecules, 2020)
Where two headings read alike, the source gives them in different places.

Legend:
human recombinant HDAC1 = target: T1, human recombinant HDAC1 (Homo sapiens, UniProt Q13547); assay: HDAC1 inhibition, fluorometric method (Enzo Fluorometric Drug Discovery Assay Kit); type: biochemical; settings: read-out: Inhibitory activity IC50 on HDAC1
T1 construct: purchased Enzo Life Sciences, Inc
T1 sequence (Q13547 whole entry): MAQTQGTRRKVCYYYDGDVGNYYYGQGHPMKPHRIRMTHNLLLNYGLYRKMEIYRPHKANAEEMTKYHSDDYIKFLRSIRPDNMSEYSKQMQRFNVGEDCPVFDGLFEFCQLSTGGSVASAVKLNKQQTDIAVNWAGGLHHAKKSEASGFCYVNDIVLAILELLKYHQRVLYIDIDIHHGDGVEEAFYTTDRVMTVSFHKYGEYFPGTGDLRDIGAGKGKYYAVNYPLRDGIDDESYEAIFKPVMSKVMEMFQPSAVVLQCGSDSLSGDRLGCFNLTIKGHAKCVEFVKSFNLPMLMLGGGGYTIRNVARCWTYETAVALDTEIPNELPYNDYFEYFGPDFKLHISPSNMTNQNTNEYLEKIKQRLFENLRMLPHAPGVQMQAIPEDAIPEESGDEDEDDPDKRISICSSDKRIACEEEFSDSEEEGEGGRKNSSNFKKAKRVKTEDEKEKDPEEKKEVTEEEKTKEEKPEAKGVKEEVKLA
Description: The inhibitory activities of the synthesized compounds were determined against CK2 and HDAC1 and the IC50 values are collected in Table 1. The activity towards human recombinant HDAC1 was tested using a fluorometric method. CK2 inhibitory activity was determined by a radiometric method, using a short peptide ([…]) as a substrate.
15 µL of HDAC1 (0.4 µg/well) or HDAC6 (0.5 µg/well) were incubated at 37 °C for 30 minutes with 10 µL of inhibitor diluted in 5% DMSO and 25 µL of fluorogenic substrate (0.05 µL/well of 5 mM solution). Reactions were stopped with the developer and trichostatin A, diluted in buffer without BSA, and the plate was incubated at 30 °C for 45 min, followed by measuring the fluorescence (Ex. 360 nm, Em. 450 nm, Fluoroskan, Thermo Scientific).

human recombinant CK2α = target: T2, human recombinant CK2α (Homo sapiens, UniProt P68400); assay: CK2 inhibition, radiometric method with peptide substrate […]; type: biochemical; settings: radiometric method, 20 µM ATP; read-out: Inhibitory activity IC50 on CK2
T2 construct: GST; made in house; host or cells: bacteria
T2 sequence (P68400 whole entry): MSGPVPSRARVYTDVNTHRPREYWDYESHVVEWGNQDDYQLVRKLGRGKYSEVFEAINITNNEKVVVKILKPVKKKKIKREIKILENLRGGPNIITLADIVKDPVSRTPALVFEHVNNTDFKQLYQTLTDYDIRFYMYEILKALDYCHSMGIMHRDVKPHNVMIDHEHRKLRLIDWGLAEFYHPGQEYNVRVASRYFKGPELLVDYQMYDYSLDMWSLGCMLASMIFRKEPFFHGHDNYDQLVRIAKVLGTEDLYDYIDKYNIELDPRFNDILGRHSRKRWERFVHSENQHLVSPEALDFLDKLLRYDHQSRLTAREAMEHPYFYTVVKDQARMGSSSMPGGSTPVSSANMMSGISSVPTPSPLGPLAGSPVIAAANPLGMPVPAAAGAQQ
Description: The activity towards human recombinant HDAC1 was tested using a fluorometric method. CK2 inhibitory activity was determined by a radiometric method, using a short peptide ([…]) as a substrate.
Recombinant human protein kinase GST-CK2 was produced in bacteria and purified as described elsewhere. […] The reaction buffer contained 20 µM [γ-32P] ATP (specific radioactivity 300–1000 cpm/pmol), 15 mM Mg^2+, 20 mM Tris–HCl pH 7.5, and 6 mM 2-mercaptoethanol. 10 µL of the assay mixture was spotted onto a square (1 cm/1 cm) of Whatman P81 paper and allowed to dry. Each square was immersed in cold 0.5% phosphoric acid, and washed three times during 10 min, allowed to dry and transferred into a vessel containing Opti-Phase liquid (scintillation solution) and radioactivity was quantified using a scintillation counter (MicroBeta, Perkin Elmer) by Cerenkov counting. All experiments were performed in triplicate. IC50 values were calculated using GraphPad Prism (version 4.0) software.

Jurkat T-leukemia cells [1] = assay: Annexin V-PI double staining, FACS; type: cell-based, human; settings: 10 µM and 30 µM, 24 h, comparison between compounds
Description: To confirm the pro-apoptotic activity of the studied inhibitors, Annexin V-PI double staining was addressed (Figure 7 down).
For cell death analyses, cells were stained with FITC-conjugated annexin V and propidium iodide (PI) using an apoptosis detection kit (BD Biosciences, San Jose, CA), according to the manufacturer’s instructions. In particular, 24 h after the addition of various concentration of CK2-HDAC inhibitors, Jurkat T-leukemia cells were centrifuged at 2,000 rpm, washed twice with 1x PBS, and incubated for 15 minutes in Annexin V binding buffer (BD Pharmingen, USA) containing 1/50 volume of FITC-conjugated Annexin V solution and PI (50 µg/mL). Then samples were diluted two times by appropriate volume of Annexin V binding buffer (BD Pharmingen, USA) and immediately measured on FL1/FL2 (FITC-PI) channels of FACScan flow cytometer (Becton Dickinson, USA). Analysis of the obtained results was carried out using the Cytomation Summit Software v3.1 (Cytomation Inc., USA).

[2] = system: HL-60, HL-60/adr and HL-60/vinc leukemia cells; assay: DCFDA assay, hydrogen peroxide production; type: cell-based, human; settings: 10 µM and 30 µM, 24 h
Description: To reveal potential mechanisms underlying this phenomenon, we studied the impact of the selected compounds on ROS production in both sensitive and MDR cell lines (Figure S8). […] As mitochondria are considered the main source of cellular superoxides, the next aim of our studies was to check whether CK2-HDAC inhibitors induce oxidative stress in tumor cells via depolarization of mitochondria, using the JC-1 assay. However, it was technically impossible to measure JC-1 accumulation on HL-60/adr and HL-60/vinc cells, because JC-1 is a substrate for these ABC-transporter proteins and is actively pumped out into extracellular medium.
Cellular ROS contents were measured by incubating control or drug-treated cells with fluorescent dyes dihydrodichlorofluorescein diacetate (DCFDA, detecting mainly H2O2) and dihydroethidium (DHE, O2^●−-specific) in concentrations of 10 μM at 37 °C for 30 minutes. After incubation with the dyes, cells were washed with PBS and immediately analyzed at FL1 (DCFDA) or FL2 channel (DHE) of FACSCalibur flow cytometer (BD Biosciences, San Jose, CA).

Jurkat T-leukemia cells [3] = assay: Cytotoxicity, trypan blue exclusion assay, 24 h; settings: Homo sapiens
Description: (§1) Walter Berger, Institute of Cancer Research, Vienna Medical University. Human embryonal kidney cells of HEK293 line were obtained from cell culture collection of R.E. Kavetsky Institute of Experimental Pathology, Oncology and Radiobiology, National Academy of Sciences of Ukraine (Kyiv, Ukraine).
(§2) Cells were seeded (5 × 10^5/mL for leukemia cells and 1 × 10^5/mL for carcinoma cells) into 24-well tissue culture plates (Greiner Bio-one, Frickenhausen, Germany) and were permitted to adhere and grow for 24 h before the experiment. Short-term (24 h) cytotoxic effect of antitumor drugs was studied under the Evolution 300 Trino microscope (Delta Optical, Nowe Osiny, Poland) after cell staining with trypan blue dye (0.1%).
(§3) Final concentration of DMSO in cell culture was 0.5% or less.
(§4) All experiments were performed in triplicate and repeated three times. Statistical analysis of data was conducted in GraphPad Prism 7.0 Software (GraphPad Software, Inc.) using Student’s t test. Statistical significance was set at P ≤ 0.05. Evaluation of LC50 values of each compound was done by built-in functions of GraphPad Prism (non-linear regression, curve fit, [Inhibitor] vs. normalized response - Variable slope).

[4] = system: HCT-116 colon carcinoma cells; assay: Cytotoxicity, trypan blue exclusion assay, 24 h; settings: Homo sapiens
Description: as §1, §2, §3, §4

[5] = 24 h, read-out: LC50 Values of Compounds for Cell Line, Jurkat
[6] = read-out: LC50 values of compounds for cell line, Jurkat
[7] = HCT-116, 24 h, read-out: LC50 Values of Compounds for Cell Line, HCT-116

Row | Compound | IC50 (human recombinant HDAC1) [µM] | IC50 (human recombinant CK2α) [µM] | number of annexin V-positive (apoptotic) cells (Jurkat T-leukemia cells [1]) | impact on hydrogen peroxide production [2] | CC50 (Jurkat T-leukemia cells [3]; [5]) [µM] | CC50 (Jurkat T-leukemia cells [3]; [6]) [µM] | CC50 [4, 7] [µM] | CC50 ([4]; HCT-116, read-out: LC50 values of compounds for cell line, HCT-116) [µM]
1 | CN(C)c1nc2c(Br)c(Br)c(Br)c(Br)c2n1CCc1cn(CCC(=O)NO)nn1 [Compound 7c, N-Hydroxy-3-(4-(2-(4,5,6,7-tetrabromo-2-(dimethylamino)-1H-benzo[d]imidazol-1-yl)ethyl)-1H-1,2,3-triazol-1-yl)propanamide] | 13.3 | 12.5 | significant decrease | hydrogen peroxide burst | 16.5 ± 2.33 | 10.7 | 16.9 ± 3.9 | 4.22
2 | O=C(NO)c1ccc(Cn2nc3c(Br)c(Br)c(Br)c(Br)c3n2)cc1 [Compound 15a, N-Hydroxy-4-((tetrabromo-2H-benzo[d][1,2,3]triazol-2-yl)methyl)benzamide] | 8.5 | 15 |  |  | 43.6 ± 16.7 | > 30 | 8.67 ± 1.02 | 
3 | CN(C)c1nc2c(Br)c(Br)c(Br)c(Br)c2n1Cc1ccc(C(=O)NO)cc1 [Compound 19, N-Hydroxy-4-((4,5,6,7-tetrabromo-2-(dimethylamino)-1H-benzo[d]imidazol-1-yl)methyl)benzamide] | 9.45 | 7.15 |  |  | 24.9 ± 3.8 | 21.8 | 11.3 ± 1.01 | 
